Experimental data from paper PMC11347161, “Sequence diversity of apidaecin-like peptides arresting the terminating ribosome” (Nucleic Acids Research, 2024).
≈ marks a conversion by molar mass, not a printed value. Residues, ends and D or L forms follow the SMILES beside them. *: point of attachment. Orn(α-tetramethylguanidino) = CN(C)C(=N[C@@H](CCCN)C(=O)*)N(C)C

Tested on: E. coli, BL21 cells
Type: cell-based
Details: for MIC, TSB / MIC, LB / MIC, RPMI/Serum: E. coli BL21, broth microdilution, conducted in triplicate; for MIC, TSB: 33% TSB medium; for MIC, LB: LB medium; for MIC, RPMI/Serum: RPMI/Serum medium (RPMI-1640:MHB:FBS = 100:5:20); for MIC values relative to wt Api: E. coli BL21, peptides from depletion selection
Method: The E. coli strain CA244 (lacZ125(Am), e14-, trpA49(Am), relA1, spoT1) was obtained from Escherichia coli Genetic Stock Center. The E. coli BL21(DE3) electrocompetent cells were from Sigma. The following media and components were implemented for bacteria growth: lysogeny broth (LB), minimal M9 medium, Tryptic Soy Broth (TSB), Roswell Park Memorial Institute medium 1640 (RPMI-1640), Mueller Hinton Broth (MHB), Fetal Bovine Serum (FBS). For various experiments E. coli cells were grown either in LB, in 33% TSB ([21]), in M9 medium supplemented with 1% Glycerol, 1 mM MgSO4, 0.1 mM CaCl2 and 10 μg/ml thiamine, or in RPMI/Serum (RPMI-1640:MHB:FBS = 100:5:20) ([23]).
The minimal inhibitory concentration (MIC) test was performed using the broth microdilution method, adapted from the previously described procedure ([28]). The MIC tests were conducted in triplicate either in LB, 33% TSB or RPMI/Serum media.
In order to quantitatively assess the antimicrobial activity of the synthesized peptides identified by both, the negative and positive selection strategies, we determined their minimal inhibitory concentrations (MICs) for the E. coli BL21 cells in three different media: LB, as a standard laboratory medium, 33% TSB, as a medium in which PrAMPs show increased antibacterial properties ([21]), and in the more therapeutically relevant RPMI/serum media ([23]) (Table 1). […] It appears, therefore, that the positive selection strategy is more prone to identifying biologically active peptides in comparison with the negative selection approaches. Furthermore, it became apparent that some multiple substitutions can even improve the antibacterial properties of the Api-like peptides.

Row | SMILES | MIC, TSB | MIC, LB | MIC, RPMI/Serum | MIC values relative to wt Api
1 | CC[C@H](C)[C@H](NC(=O)[C@H](Cc1ccc(O)cc1)NC(=O)[C@@H](NC(=O)[C@@H]1CCCN1C(=O)[C@H](CCCNC(=N)N)NC(=O)[C@H](CC(N)=O)NC(=O)[C@H](CCCCN)NC(=O)[C@H](CCCN)N=C(N(C)C)N(C)C)C(C)C)C(=O)N[C@@H](CC(N)=O)C(=O)N[C@@H](CCC(N)=O)C(=O)N1CCC[C@H]1C(=O)N[C@@H](CCCNC(=N)N)C(=O)N[C@@H](CCC(=O)O)C(=O)N1CCC[C@H]1C(=O)N[C@@H](Cc1c[nH]cn1)C(=O)N1CCC[C@H]1C(=O)N[C@@H](CCCNC(=N)N)C(=O)N[C@@H](CC(C)C)C(=O)O [Peptide K2N9E13] ({Orn(α-tetramethylguanidino)}-KNRPVYINQPREPHPRL-OH; C-terminus assumed) | >64 µM | >64 µM | >64 µM | –
2 | CC(C)C[C@H](NC(=O)[C@H](CCCNC(=N)N)NC(=O)[C@@H]1CCCN1C(=O)[C@H](Cc1c[nH]cn1)NC(=O)[C@@H]1CCCN1C(=O)[C@H](CO)NC(=O)[C@H](CCCNC(=N)N)NC(=O)[C@@H]1CCCN1C(=O)[C@@H](NC(=O)[C@H](CC(N)=O)NC(=O)[C@H](Cc1ccc(O)cc1)NC(=O)[C@H](Cc1ccc(O)cc1)NC(=O)[C@@H](NC(=O)[C@@H]1CCCN1C(=O)[C@H](CCCNC(=N)N)NC(=O)[C@H](CCCCN)NC(=O)[C@H](CC(N)=O)NC(=O)[C@H](CCCN)N=C(N(C)C)N(C)C)C(C)C)[C@@H](C)O)C(=O)O [Peptide K3Y8N9T10S13] ({Orn(α-tetramethylguanidino)}-NKRPVYYNTPRSPHPRL-OH; C-terminus assumed) | >64 µM | >64 µM | >64 µM | –
3 | CC[C@H](C)[C@H](NC(=O)[C@H](Cc1ccc(O)cc1)NC(=O)[C@H](CCCCN)NC(=O)[C@@H]1CCCN1C(=O)[C@H](CCCNC(=N)N)NC(=O)[C@H](CC(N)=O)NC(=O)[C@H](CC(N)=O)NC(=O)[C@H](CCCN)N=C(N(C)C)N(C)C)C(=O)N1CCC[C@H]1C(=O)N[C@@H](CCSC)C(=O)N1CCC[C@H]1C(=O)N[C@@H](CCCNC(=N)N)C(=O)N1CCC[C@H]1C(=O)N1CCC[C@H]1C(=O)N[C@@H](Cc1c[nH]cn1)C(=O)N1CCC[C@H]1C(=O)N[C@@H](CCCNC(=N)N)C(=O)N[C@@H](CC(C)C)C(=O)O [Peptide K6M10] ({Orn(α-tetramethylguanidino)}-NNRPKYIPMPRPPHPRL-OH; C-terminus assumed) | 0.5 µM (≈ 1.15 µg/mL) | 8 µM (≈ 18.4 µg/mL) | 1 µM (≈ 2.3 µg/mL) | comparable to those of wt Api
4 | CC(C)C[C@H](NC(=O)[C@H](CCCNC(=N)N)NC(=O)[C@H](CC(C)C)NC(=O)[C@H](Cc1c[nH]cn1)NC(=O)[C@@H]1CCCN1C(=O)CNC(=O)[C@H](CC(C)C)NC(=O)[C@@H]1CCCN1C(=O)[C@H](CCC(N)=O)NC(=O)[C@@H]1CCCN1C(=O)[C@H](CC(C)C)NC(=O)[C@H](Cc1ccc(O)cc1)NC(=O)[C@@H](NC(=O)[C@@H]1CCCN1C(=O)[C@H](CCCNC(=N)N)NC(=O)[C@H](CC(N)=O)NC(=O)[C@H](CC(N)=O)NC(=O)[C@H](CCCN)N=C(N(C)C)N(C)C)C(C)C)C(=O)O [Peptide L8L12G13L16] ({Orn(α-tetramethylguanidino)}-NNRPVYLPQPLGPHLRL-OH; C-terminus assumed) | >64 µM | >64 µM | >64 µM | –
5 | CC[C@H](C)[C@H](NC(=O)[C@H](Cc1ccc(O)cc1)NC(=O)[C@H](CCSC)NC(=O)[C@@H]1CCCN1C(=O)[C@H](CCCNC(=N)N)NC(=O)[C@H](CC(N)=O)NC(=O)[C@H](CC(N)=O)NC(=O)[C@H](CCCN)N=C(N(C)C)N(C)C)C(=O)N[C@@H](C)C(=O)N[C@@H](CCC(N)=O)C(=O)N1CCC[C@H]1C(=O)N[C@@H](CCCNC(=N)N)C(=O)N1CCC[C@H]1C(=O)N[C@@H](Cc1ccc(O)cc1)C(=O)N[C@@H](Cc1c[nH]cn1)C(=O)N1CCC[C@H]1C(=O)N[C@@H](CCCNC(=N)N)C(=O)N[C@@H](CC(C)C)C(=O)O [Peptide M6A9Y14] ({Orn(α-tetramethylguanidino)}-NNRPMYIAQPRPYHPRL-OH; C-terminus assumed) | 16 µM (≈ 37.4 µg/mL) | >64 µM | 16 µM (≈ 37.4 µg/mL) | –
6 | CC[C@H](C)[C@H](NC(=O)CNC(=O)[C@@H](NC(=O)[C@H](CCC(=O)O)NC(=O)[C@H](CCC(N)=O)NC(=O)[C@H](CC(N)=O)NC(=O)[C@H](CC(N)=O)NC(=O)[C@H](CCCN)N=C(N(C)C)N(C)C)C(C)C)C(=O)N[C@@H](CCSC)C(=O)N[C@@H](CCC(N)=O)C(=O)N1CCC[C@H]1C(=O)N[C@@H](CCCNC(=N)N)C(=O)N1CCC[C@H]1C(=O)N1CCC[C@H]1C(=O)N[C@@H](Cc1c[nH]cn1)C(=O)N1CCC[C@H]1C(=O)N[C@@H](CCCNC(=N)N)C(=O)N[C@@H](CC(C)C)C(=O)O [Peptide Q4E5G7M9] ({Orn(α-tetramethylguanidino)}-NNQEVGIMQPRPPHPRL-OH; C-terminus assumed) | >64 µM | >64 µM | >64 µM | –
7 | CC[C@H](C)[C@H](NC(=O)[C@H](Cc1ccc(O)cc1)NC(=O)[C@@H](NC(=O)[C@H](CCCNC(=N)N)NC(=O)[C@H](CCCNC(=N)N)NC(=O)[C@H](CC(N)=O)NC(=O)[C@H](CC(N)=O)NC(=O)[C@H](CCCN)N=C(N(C)C)N(C)C)C(C)C)C(=O)N1CCC[C@H]1C(=O)N[C@@H](CC(N)=O)C(=O)N1CCC[C@H]1C(=O)N[C@@H](CCCNC(=N)N)C(=O)N1CCC[C@H]1C(=O)N1CCC[C@H]1C(=O)N[C@@H](Cc1c[nH]cn1)C(=O)N1CCC[C@H]1C(=O)N[C@@H](CCCNC(=N)N)C(=O)N[C@@H](CC(C)C)C(=O)O [Peptide R5N10] ({Orn(α-tetramethylguanidino)}-NNRRVYIPNPRPPHPRL-OH; C-terminus assumed) | 8 µM (≈ 18.5 µg/mL) | 32 µM (≈ 73.9 µg/mL) | 1 µM (≈ 2.31 µg/mL) | comparable to those of wt Api
8 | CC[C@H](C)[C@H](NC(=O)[C@H](Cc1ccc(O)cc1)NC(=O)[C@@H](NC(=O)[C@H](CCCNC(=N)N)NC(=O)[C@H](CCCNC(=N)N)NC(=O)[C@H](CC(N)=O)NC(=O)[C@H](CC(N)=O)NC(=O)[C@H](CCCN)N=C(N(C)C)N(C)C)C(C)C)C(=O)N1CCC[C@H]1C(=O)N[C@@H](CCC(N)=O)C(=O)N1CCC[C@H]1C(=O)N[C@@H](CCCNC(=N)N)C(=O)N[C@@H](CC(N)=O)C(=O)N1CCC[C@H]1C(=O)N[C@@H](Cc1c[nH]cn1)C(=O)N[C@@H](CC(C)C)C(=O)N[C@@H](CCCNC(=N)N)C(=O)N[C@@H](CC(C)C)C(=O)O [Peptide R5N13L16] ({Orn(α-tetramethylguanidino)}-NNRRVYIPQPRNPHLRL-OH; C-terminus assumed) | >64 µM | >64 µM | >64 µM | –
9 | CC(C)C[C@H](NC(=O)[C@H](CCCNC(=N)N)NC(=O)[C@@H]1CCCN1C(=O)[C@H](Cc1c[nH]c2ccccc12)NC(=O)[C@@H]1CCCN1C(=O)[C@@H]1CCCN1C(=O)[C@H](CCCNC(=N)N)NC(=O)[C@@H]1CCCN1C(=O)[C@H](CCC(N)=O)NC(=O)[C@@H]1CCCN1C(=O)[C@H](CC(=O)O)NC(=O)[C@H](CC(N)=O)NC(=O)[C@@H](NC(=O)[C@H](CCCNC(=N)N)NC(=O)[C@H](CCCNC(=N)N)NC(=O)[C@H](CC(N)=O)NC(=O)[C@H](CC(N)=O)NC(=O)[C@H](CCCN)N=C(N(C)C)N(C)C)[C@@H](C)O)C(=O)O [Peptide R5T6N7D8W15] ({Orn(α-tetramethylguanidino)}-NNRRTNDPQPRPPWPRL-OH; C-terminus assumed) | >64 µM | >64 µM | >64 µM | –
10 | CC[C@H](C)[C@H](NC(=O)[C@H](Cc1ccc(O)cc1)NC(=O)[C@H](CCCNC(=N)N)NC(=O)[C@@H]1CCCN1C(=O)[C@H](CCCNC(=N)N)NC(=O)[C@H](CC(N)=O)NC(=O)[C@H](CC(N)=O)NC(=O)[C@H](CCCN)N=C(N(C)C)N(C)C)C(=O)N1CCC[C@H]1C(=O)N[C@@H](C)C(=O)N1CCC[C@H]1C(=O)N[C@@H](CCCNC(=N)N)C(=O)N1CCC[C@H]1C(=O)N1CCC[C@H]1C(=O)N[C@@H](Cc1c[nH]cn1)C(=O)N1CCC[C@H]1C(=O)N[C@@H](CCCNC(=N)N)C(=O)N[C@@H](CC(C)C)C(=O)O [Peptide R6A10] ({Orn(α-tetramethylguanidino)}-NNRPRYIPAPRPPHPRL-OH; C-terminus assumed) | 0.5 µM (≈ 1.13 µg/mL) | 4 µM (≈ 9.05 µg/mL) | 0.0625 µM (≈ 0.141 µg/mL) | comparable to those of wt Api
